Assay results from patent US11046712B2, “Glycosidase inhibitors” (Asceneuron SA, priority 2014, dated 2021).
pIC50: −log10 of the molar value. Read-outs that look alike come from different tables or passages of the source.

Target: His-Tagged hOGA (human O-GlcNAcase) (Homo sapiens (Human), UniProt O60502)
Assay: Human O-GlcNAcase enzyme inhibition assay (Example B01)
Type: biochemical
Settings: for IC50: OGA IC50 (M); for IC50 / pIC50: OGA enzyme inhibition assay, activity range classes; for pIC50: read-out: OGA IC50

Sequence of His-Tagged hOGA (human O-GlcNAcase) (O60502 whole entry): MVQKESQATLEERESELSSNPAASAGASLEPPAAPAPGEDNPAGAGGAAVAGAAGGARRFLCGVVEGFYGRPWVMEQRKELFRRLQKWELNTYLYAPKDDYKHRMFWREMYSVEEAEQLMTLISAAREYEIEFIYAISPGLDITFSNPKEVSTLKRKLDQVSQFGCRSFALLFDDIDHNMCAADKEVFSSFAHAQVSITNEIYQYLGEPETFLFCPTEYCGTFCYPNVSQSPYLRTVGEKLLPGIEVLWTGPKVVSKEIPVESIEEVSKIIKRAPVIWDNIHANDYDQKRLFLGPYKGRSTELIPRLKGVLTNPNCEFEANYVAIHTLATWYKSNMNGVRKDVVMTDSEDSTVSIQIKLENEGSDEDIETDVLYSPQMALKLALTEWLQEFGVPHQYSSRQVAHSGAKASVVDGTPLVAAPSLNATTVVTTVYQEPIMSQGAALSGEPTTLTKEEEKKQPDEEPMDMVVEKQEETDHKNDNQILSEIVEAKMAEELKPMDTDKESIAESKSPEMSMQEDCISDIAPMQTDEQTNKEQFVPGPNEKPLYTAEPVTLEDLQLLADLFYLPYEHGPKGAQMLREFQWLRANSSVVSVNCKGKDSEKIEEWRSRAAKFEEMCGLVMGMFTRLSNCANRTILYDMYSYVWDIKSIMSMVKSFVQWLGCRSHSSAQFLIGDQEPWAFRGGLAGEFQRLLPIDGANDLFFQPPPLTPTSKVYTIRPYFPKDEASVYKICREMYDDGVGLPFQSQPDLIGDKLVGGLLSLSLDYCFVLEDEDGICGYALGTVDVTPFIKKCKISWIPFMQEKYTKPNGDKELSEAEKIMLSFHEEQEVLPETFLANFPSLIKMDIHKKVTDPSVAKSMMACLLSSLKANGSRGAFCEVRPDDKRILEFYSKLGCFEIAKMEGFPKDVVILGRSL

SMILES	IC50 [M]	OGA inhibitor activity, in words	pIC50
C[C@@H](c1ccc2c(c1)OCCO2)N1CCN(c2ncc(C(=O)N(C)C)s2)CC1 (single isomer, unassigned) [Example 64]	< 5e-08		
CC(=O)Nc1cnc(N2CCN(C(C)c3ccc4cccnc4c3)CC2)nc1 (racemic) [Example 120, N-(2-(4-(1-(quinolin-7-yl)ethyl)piperazin-1-yl)pyrimidin-5-yl)acetamide]	2e-07 to 1e-06		
C[C@@H](c1ccc2c(c1)OCO2)N1CCN(c2ncc(C3(O)CCCC3)cn2)CC1 [Example 181, (S)-1-(2-(4-(1-(benzofdlH,31dioxol-5-yl)ethyl)piperazin-1-yl)pyrimidin-5-yl)cyclopentan-1-ol]		very potent OGA inhibitors	
CC(=O)NCc1csc(N2CCN(C(C)c3ccc4c(c3)OCO4)CC2)n1 (centres unmarked) [Example 85, N-((2-(4-(1-(benzordiri,31dioxol-5-yl)ethyl)piperazin-1-yl)thiazol-4-yl)methyl)acetamide]			> 7.30
CNC(=O)c1csc(N2CCN([C@@H](C)c3ccc4c(c3)OCCO4)CC2)n1 (single isomer, unassigned) [Example 57, (R)-2-(4-(1-(2,3-dihydrobenzorbin,41dioxin-6-yl)ethyl)piperazin-1-yl)-N-methylthiazole-4-carboxamide or (S)-2-(4-(1-(2,3-dihydrobenzorbiri,41dioxin-6-yl)ethyl)piperazin-1-yl)-N-methylthiazole-4-carboxamide]			> 7.30
CCNC(=O)c1cnc(N2CCN([C@@H](C)c3ccc4c(c3)OCCO4)CC2)s1 (single isomer, unassigned) [Example 62, (S)-2-(4-(1-(2,3-dihydrobenzorbiri,41dioxin-6-yl)ethyl)piperazin-1-yl)-N-ethylthiazole-5-carboxamide or (R)-2-(4-(1-(2,3-dihydrobenzorblH,41dioxin-6-yl)ethyl)piperazin-1-yl)-N-ethylthiazole-5-carboxamide]	5e-08 to 2e-07		
C[C@@H](c1ccc2c(c1)OCO2)N1CCN(c2nnc(N)s2)CC1 [Example 132, (S)-5-(4-(1-(benzordiri,31dioxol-5-yl)ethyl)piperazin-1-yl)-1,3,4-thiadiazol-2-amine]		very potent OGA inhibitors	
CC(=O)Nc1cnc(N2CCN(C(C)c3ccc4c(c3)OCC4)CC2)nc1 (racemic) [Example 129]		very potent OGA inhibitors	
C[C@@H](c1ccc2c(c1)OCCO2)N1CCN(c2ncc(C(=O)N(C)C)s2)CC1 (single isomer, unassigned) [Example 63]	1e-06 to 1e-05		
CC(c1ccc2c(c1)OCO2)N1CCN(c2ncc(CO)cn2)CC1 (racemic) [Example 52, (2-(4-(1-(benzordiri,31 dioxol-5-yl)ethyl)piperazin-1-yl)pyrimidin-5-yl)methanol]		very potent OGA inhibitors	
C[C@@H](c1ccc2c(c1)OCCO2)N1CCN(c2ncc(C(=O)N3CCN(C)CC3)s2)CC1 (single isomer, unassigned) [Example 75]	< 5e-08	very potent OGA inhibitors	
C[C@H](c1ccc2nccnc2c1)N1CCN(c2ncc(C(F)(F)F)cn2)CC1 (single isomer, unassigned) [Example 104, (S)-6-(1-(4-(5-(trifluoromethyl)pyrimidin-2-yl)piperazin-1-yl)ethyl)quinoxaline or (R)-6-(1-(4-(5-(trifluoromethyl)pyrimidin-2-yl)piperazin-1-yl)ethyl)quinoxaline]	5e-08 to 2e-07		
CCNC(=O)c1cnc(N2CCN([C@@H](C)c3ccc4c(c3)OCO4)CC2)s1 (single isomer, unassigned) [Example 59]	1e-06 to 1e-05		
COc1cc(C(C)N2CCN(c3nnc(NC(C)=O)s3)CC2)ccc1Cl (racemic) [Example 88]	1e-06 to 1e-05		
C[C@@H](c1ccc2c(c1)OCO2)N1CCN(c2nc3c(s2)CN(C)CC3)CC1 [Example 194, (S)-2-(4-(1-(benzordiri,31dioxol-5-yl)ethyl)piperazin-1-yl)-5-methyl-4,5,6,7-tetrahydrothiazoloi5,4-c1pyridine]			> 7.30
C[C@@H](c1ccc2c(c1)OCO2)N1CCN(c2ncc(C(=O)N(C)C)cn2)CC1 [Example 137]		very potent OGA inhibitors	
CNC(=O)c1cnc(N2CCN([C@@H](C)c3ccc4c(c3)OCO4)CC2)s1 (single isomer, unassigned) [Example 65]	1e-06 to 1e-05		
CNC(=O)c1cnc(N2CCN([C@@H](C)c3ccc4c(c3)OCO4)CC2)s1 (single isomer, unassigned) [Example 66]	< 5e-08		
C[C@H](O)c1cnc(N2CCN([C@@H](C)c3ccc4c(c3)OCO4)CC2)nc1 (single isomer, unassigned) [Example 198]			> 7.30
C[C@@H](c1ccc2c(c1)OCO2)N1CCN(c2ncc(C(C)(C)O)cn2)CC1 [Example 176, (S)-2-(2-(4-(1-(benzordiri,31dioxol-5-yl)ethyl)piperazin-1-yl)pyrimidin-5-yl)propan-2-ol]		very potent OGA inhibitors	
C[C@@H](c1ccc2c(c1)OCO2)N1CCN(c2nc3c(s2)CNCC3)CC1 [Example 182, (S)-2-(4-(1-(benzofdlM,31dioxol-5-yl)ethyl)piperazin-1-yl)-4,5,6,7-tetrahydrothiazoloi5,4-c1pyridine]		very potent OGA inhibitors	
C[C@@H](c1ccc2c(c1)OCCO2)N1CCN(c2ncc(C(=O)N(C)CCN(C)C)s2)CC1 (single isomer, unassigned) [Example 71, (R)-2-(4-(1-(2,3-Dihydrobenzorb1H,41dioxin-6-yl)ethyl)piperazin-1-yl)-N-(2-(dimethylamino)ethyl)-N-methylthiazole-5-carboxamide or (S)-2-(4-(1-(2,3-dihydrobenzorbiri^1dioxin-6-yl)ethyl)piperazin-1-yl)-N-(2-(dimethylamino)ethyl)-N-methylthiazole-5-carboxamide]			> 7.30
CC(=O)Nc1cnc(N2CCN(C(C)c3ccc4scnc4c3)CC2)nc1 (racemic) [Example 116, N-(2-(4-(1-(benzord1thiazol-5-yl)ethyl)piperazin-1-yl)pyrimidin-5-yl)acetamide]		very potent OGA inhibitors	
CC(c1ccc2c(c1)OCO2)N1CCN(c2nc(CN)cs2)CC1 (centres unmarked) [Example 84, (2-(4-(1-(benzordin,31 dioxol-5-yl)ethyl)piperazin-1-yl)thiazol-4-yl)methanamine]			6.70 to 7.30
CC(c1ccc2c(c1)OCO2)N1CCN(c2ncc(C(N)=O)s2)CC1 (racemic) [Example 48, 2-(4-(1-(Benzord1(1,3)dioxol-5-yl)ethyl)piperazin-1-yl)thiazole-5-carboxamide]		very potent OGA inhibitors	
C[C@@H](c1ccc2c(c1)OCCO2)N1CCN(c2ncc(C(=O)N3CCN(C)CC3)s2)CC1 (single isomer, unassigned) [Example 74]	1e-06 to 1e-05		
C[C@@H](c1ccc2c(c1)OCCO2)N1CCN(c2ncccn2)CC1 (single isomer, unassigned) [Example 34, (R)-2-(4-(1-(2,3-Dihydrobenzorbiri,41dioxin-6-yl)ethyl)piperazin-1-yl)pyrimidine or (S)-2-(4-(1-(2,3-Dihydrobenzorbiri^1dioxin-6-yl)ethyl)piperazin-1-yl)pyrimidine]		very potent OGA inhibitors	> 7.30
